Where a name gives a salt, the structure may show the parent alone.
What was measured:
[1] = system: gram-positive and gram-negative bacteria; test: Antibacterial spectra in vitro (MIC), summary in words; type: cell-based; conditions: compared to cefroxadine
From the text: Minimum inhibitory concentrations (MIC.) (mcg/ml) as determined by serial
dilution method on agar plates

[2] = system: Escherichia coli No. 29; test: Curative effect by oral administration in mice infected intraperitoneally with Escherichia coli No. 29 (survival over 7 days); type: in vivo; conditions: for number of surviving mice: three mice in each group, 7 days
From the text: Thus, some tests were made to evaluate the curative effects of the new compound of this invention in therapeutic treatment of bacterial infections when the new compound was orally given to mice (average body weight 20 g) which had been infected with Escherichia coli No. 29. In these tests for therapeutic treatment of the bacterial infection, mice (three mice in each group) were inoculated intraperitoneally with Escherichia coli No. 29 at an inoculmn dose of 3.25×10^5 CFU/mouse and then immediately treated by oral administration of the test compound. For the subsequent 7 days, the mice were kept under observation and the number of surviving mice was counted.

Structure (SMILES) | antibacterial activity against resistant strains of bacteria [1] | antibacterial spectrum (range) [1] | number of surviving mice ([2]; 0.1 mg/mouse) | number of surviving mice ([2]; 1 mg/mouse) | number of surviving mice ([2]; 5 mg/mouse) | number of surviving mice ([2]; 10 mg/mouse) | curative effects in therapeutic treatment of the bacterial infection in vivo ([2]; mice infected with Escherichia coli No. 29)
CSC1=C(C(=O)O)N2C(=O)C(NC(=O)C(C(=O)O)c3cccs3)C2OC1 (stereo not shown) [Example 3(b), 7-[2-(2-thienyl)-2-carboxyacetamido]-1-oxa-1-dethia-3-methylthio-3-cephem-4-carboxylic acid] | effective and higher antibacterial activity against resistant strains of bacteria than cefroxadine | wider range of the antibacterial spectrum than cefroxadine |  |  |  |  | 
CSC1=C(C(=O)O)N2C(=O)C(NC(=O)C(C(=O)O)c3ccsc3)C2OC1 (stereo not shown) [Example 4(b), 7-[2-(3-thienyl)-2-carboxyacetamido]-1-oxa-1-dethia-3-methylthio-3-cephem-4-carboxylic acid] | effective and higher antibacterial activity against resistant strains of bacteria than cefroxadine | wider range of the antibacterial spectrum than cefroxadine |  |  |  |  | 
CSC1=C(C(=O)O)N2C(=O)C(NC(=O)Cc3ccsc3)C2OC1 (stereo not shown) [Example 2(b), 7-(3-thienylacetamido)-1-oxa-1-dethia-3-methylthio-3-cephem-4-carboxylic acid] | effective and higher antibacterial activity against resistant strains of bacteria than cefroxadine | wider range of the antibacterial spectrum than cefroxadine |  |  |  |  | 
CSC1=C(C(=O)O)N2C(=O)C(NC(=O)Cc3cccs3)C2OC1 (stereo not shown) [Example 1(b), 7-(2-thienylacetamido)-1-oxa-1-dethia-3-methylthio-3-cephem-4-carboxylic acid] | effective and higher antibacterial activity against resistant strains of bacteria than cefroxadine | wider range of the antibacterial spectrum than cefroxadine |  |  |  |  | 
CO/N=C(\C(=O)NC1C(=O)N2C(C(=O)O)=C(SC)COC12)c1csc(N)n1 (stereo not drawn) [Example 6(b), 7-[2-(2-amino-4-thiazolyl)-2-methoxyiminoacetamido]-1-oxa-1-dethia-3-methylthio-3-cephem-4-carboxylic acid trifluoroacetate (syn-isomer)] |  |  | 1 mice | 3 mice | 3 mice | 3 mice | better curative effects in therapeutic treatment of the bacterial infection in vivo

From US4497811A, “1-Oxadethiacephalosporin compound and antibacterial agent containing the _same” (priority 1983, dated 1985)
